Assays:
Msgal1-L1 = experiment: Solid-phase binding-inhibition assay: rMsgal1-L1-HRP binding to asialofetuin (ASF) inhibited by carbohydrates; design: species or system Morone saxatilis; conditions: for Relative inhibitory activity, Morone saxatilis: I50 normalized to Galβ1,4Glc (lactose) = 1.0, rMsgal1-L1-HRP binding to ASF, pH 8.0, 23°C, 10 mM ME
Method: Binding of the rMsgal1-L1–HRP to asialofetuin (ASF) and its inhibition by carbohydrates were assessed and optimized as reported elsewhere ([Ahmed et al., 1996], [2002]). […] Thus, the inhibition of galectin binding to immobilized ASF by mono- and oligosaccharides is a standard system to analyze the fine specificity of novel galectins. Briefly, ASF (0.5 μg/100 μl/well) in 0.1 M Na2CO3/0.02% NaN3 (pH 9.6) was adsorbed onto the plastic wells (37°C, 3 h) and the bound glycoprotein was fixed with 2% formaldehyde (37°C, 30 min). The plates were washed three times with PBS (azide-free)/0.05% Tween 20, and incubated with the Msgal1-L1–HRP conjugate (10 ng/100 μl/well for binding assays) or with a pre-incubated mixture of equal volume of conjugate and varying concentrations of test ligands (for binding-inhibition assays). After incubation (4°C, 1 h) the plates were washed with ice-cold azide-free PBS-Tween 20 buffer and the bound peroxidase activity was assayed with 2,2’-azino-bis(3-ethylbenzothiazoline-6-sulfonic acid) (ABTS) as previously described ([Ahmed et al., 1996]).
The carbohydrate-binding specificity of Msgal1-L1 was determined by analyzing the binding of the rMsgal1-L1–HRP conjugate to ASF in the presence of several saccharides in a solid-phase assay under the optimal conditions of pH and temperature established above (pH 8.0; 23°C) and under a reducing environment (10 mM ME) ([Ahmed et al., 1996], [2002]). For each test saccharide, a complete inhibition curve was obtained, and the molar concentrations that inhibited the binding of the lectin conjugate to ASF by 50% (I 50) were calculated and normalized with respect to Galβ1,4Glc (lactose), which was included in each plate as a standard ( Table 2 ). The binding-inhibition profile for Msgal1-L1 was generally similar to those for proto type galectins from zebrafish (D. rerio), toad (B. arenarum), and domestic cow (Bos taurus). […] The presence of a fucose unit linked in α1,2 to the non-reducing Gal moiety decreased the inhibitory effectiveness in about one-third as compared to lactose, most likely by steric hindrance of the protein–Gal interaction. […] A hydrophobic phenyl group linked to the reducing end of Galβ1,3GlcNAc strengthened the Msgal1-L1 interaction with the ligand 6.5-fold.

[1] = system: proto type galectin from zebrafish (Danio rerio); conditions: relative to Galβ1,4Glc = 1.0; comparison values, reference not given; cited from earlier work
[2] = system: proto type galectin from toad (Bufo arenarum); conditions: relative to Galβ1,4Glc = 1.0; comparison values, reference not given; cited from earlier work
[3] = system: proto type galectin from domestic cow (Bos taurus); conditions: relative to Galβ1,4Glc = 1.0; comparison values, reference not given; cited from earlier work
[4] = system: striped bass epidermal mucus; experiment: Dot blot binding to untreated and glycosidase-treated epidermal mucus fractions; design: species or system Morone saxatilis; conditions: pre-incubation of rMsgal1-L1 with lactose 200 mM; inhibition not complete
Method: The crude epidermal mucus was cleared of particulate matter and fractionated by centrifugation at 17,000 rpm for 45 min at 4°C, resulting in three distinct layers: a clear upper layer of lower viscosity, an opaque more viscous layer immediately below that likely contain the highest concentration of mucins, and a loose pellet of solid cellular debris. Fractions obtained from multiple centrifugations were separated and corresponding layers were pooled as “clear upper layer pool” and “viscous intermediate layer pool.”
Pooled mucus layers were treated with N-glycosidase F [peptide-N ^4-(acetyl-β-glucosaminyl) asparagine amidase], O-glycosidase (O-glycopeptide endo-D-galactosyl-N-acetyl-α-galactosamino hydrolase, Roche), endoglycosidase H, or all three enzymes combined. […]
Aliquots (100 μL/well) of untreated or glycosidase-treated epidermal mucus pooled layers were dot-blotted onto PVDF membranes using a Bio-Dot Microfiltration Apparatus (Bio-Rad) under vacuum in replicate wells. […] For detection of endogenous ligands for Msgal1-L1, the membranes were blocked in 5% BSA/PBS, probing with rMsgal1-L1–HRP with or without lactose (200 mM), and detected with Stable-DAB (Invitrogen).

Molecule | Relative inhibitory activity, Morone saxatilis (Msgal1-L1) | Relative inhibitory activity, Danio rerio [1] | Relative inhibitory activity, Bufo arenarum [2] | Relative inhibitory activity, Bos taurus [3] | Inhibitory effect (in words) (Msgal1-L1; Msgal1-L1 binding inhibition) | Inhibition of Msgal1-L1 binding to mucus layers [4] | Fold less effective than lactose as inhibitor (Msgal1-L1; Msgal1-L1 binding to ASF) | Relative inhibitory activity, Morone saxatilis (Msgal1-L1; listed as Thiodigalactoside) | Relative inhibitory activity, Morone saxatilis (Msgal1-L1; listed as Galβ1,4GlcNAc)
OC[C@H]1O[C@@H](O[C@H]2[C@@H](O)COC(O)[C@@H]2O)[C@H](O)[C@@H](O)[C@H]1O (stereo partly shown) [Galβ1,3Ara] | 4.10 | 2.1 | 1.28 | 2.56 |  |  |  |  | 
OC[C@H]1O[C@@H](O[C@H]2[C@H](O)[C@H](O)C(O)O[C@@H]2CO)[C@H](O)[C@@H](O)[C@H]1O (stereo partly shown) [Galβ1,4Man] | 1.74 | 1.5 | 2.5 | 2.34 |  |  |  |  | 
CC(=O)N[C@H]1C(O)O[C@H](CO)[C@H](O)[C@@H]1OC1O[C@H](CO)[C@H](O)[C@H](O)[C@H]1O (stereo partly shown) [Gal1,3GalNAc] |  |  |  |  | negligible |  |  |  | 
OC[C@H]1O[C@@H](O[C@@H]2[C@@H](CO)O[C@](O)(CO)[C@H]2O)[C@H](O)[C@@H](O)[C@H]1O [Galβ1,4Fru f] | 1.9 | 1.0 | 1.0 |  |  |  |  |  | 
OC[C@H]1O[C@@H](O[C@H]2[C@H](O)[C@@H](O)[C@H](O)O[C@@H]2CO)[C@H](O)[C@@H](O)[C@H]1O [Galβ1,4Glc, lactose] | 1.0 | 1.0 | 1.0 | 1.0 |  | substantially reduced |  |  | 
Nc1ccc(O[C@@H]2O[C@H](CO)[C@@H](O[C@@H]3O[C@H](CO)[C@H](O)[C@H](O)[C@H]3O)[C@H](O)[C@H]2O)cc1 [Galβ1,4Glcβ-OPhNH2 (p)] | 2 | 1.4 | 1.71 | 1.48 |  |  |  |  | 
CO[C@@H]1O[C@H](CO)[C@@H](O[C@@H]2O[C@H](CO)[C@H](O)[C@H](O)[C@H]2O)[C@H](O)[C@H]1O [Galβ1,4Glcβ(1-0)Me] | 1.74 | 2.9 | 2.14 | 1.33 |  |  |  |  | 
CO[C@@H]1O[C@H](CO)[C@H](O)[C@H](O)[C@H]1O [Galβ-OMe] | 0.009 | 0.004 | 0.006 | 0.0044 |  |  |  |  | 
Galβ1,6GlcNAc | 0.225 | 0.03 | 0.83 | 0.12 |  |  |  |  | 
CC(=O)N[C@H]1[C@@H](O[C@H]2[C@@H](O)[C@@H](CO)O[C@@H](O)[C@@H]2O[C@@H]2O[C@@H](C)[C@@H](O)[C@@H](O)[C@@H]2O)O[C@H](CO)[C@H](O)[C@@H]1O [A-trisaccharide] |  |  |  |  |  |  | threefold less effective |  | 
CC(=O)N[C@H]1[C@H](O[C@H]2[C@H](O)[C@@H](CO)OC(O)[C@@H]2O)O[C@H](CO)[C@H](O)[C@@H]1O (stereo partly shown) [GalNacβ1,3Glc] | 2.8 |  | 4.45 |  |  |  |  |  | 
CC(=O)N[C@H]1[C@H](Oc2ccc([N+](=O)[O-])cc2)O[C@H](CO)[C@@H](O)[C@@H]1O[C@@H]1O[C@H](CO)[C@H](O)[C@H](O)[C@H]1O [Galβ1-3GlcNacβ-OPhNO2 (p)] | 6.5 | 2.3 | 1.78 | 4.5 |  |  |  |  | 
CO[C@H]1O[C@H](CO)[C@H](O)[C@H](O)[C@H]1O [Galα-OMe] | 0.027 | 0.006 | 0.03 | 0.01 |  |  |  |  | 
OC[C@H]1O[C@@H](S[C@@H]2O[C@H](CO)[C@H](O)[C@H](O)[C@H]2O)[C@H](O)[C@@H](O)[C@H]1O [Galβ1S1βGal, Thiodigalactoside] | 10.0 | 12.2 | 3.9 | 9.0 |  |  |  | approximately 10 | 
Fucα1,2Galβ1,4Glc | 0.33 | 0.35 | 0.17 | 0.36 |  |  |  |  | 
OC[C@H]1O[C@H](OCC2O[C@@H](O)[C@H](O)[C@@H](O)[C@@H]2O)[C@H](O)[C@@H](O)[C@H]1O (stereo partly shown) [Galα1,6Glc] | 0.019 | 0.004 | 0.0075 | 0.0053 |  |  |  |  | 
CC(=O)N[C@H]1C(O)O[C@H](CO)[C@@H](O[C@@H]2O[C@H](CO)[C@H](O)[C@H](O)[C@H]2O)[C@@H]1O (stereo partly shown) [Galβ1,4GlcNac, N-acetyllactosamine] | 3.07 | 7.9 | 3.75 | 5.54 |  |  |  |  | approximately 3
CO[C@H]1[C@H](O[C@H]2[C@H](O)[C@@H](O)C(O)O[C@@H]2CO)O[C@H](CO)[C@H](O)[C@@H]1O (stereo partly shown) [MeO-2Galβ1,4Glc] | 3.33 | 2.9 | 2.5 | 4.08 |  |  |  |  | 
O=C[C@H](O)[C@@H](O)[C@@H](O)[C@H](O)CO [Gal, D-galactose] | 0.007 | 0.004 | 0.005 | 0.0079 |  |  |  |  | 

Reference: paper PMC12116657, “A “proto” type galectin expressed in striped bass (Morone saxatilis) tissues is released to epidermal mucus and binds to bacterial and mucus glycans” (Frontiers in Cellular and Infection Microbiology, 2025)
